The values that follow come from paper PMC6599797, “Functional characterization of three flavonoid glycosyltransferases from Andrographis paniculata” (Royal Society Open Science, 2019).

What all share (format): biochemical
Experiment [1] has as its target T1, ApUFGT2 (Andrographis paniculata, UniProt A0A8E3S624).
T1 construct: gene UGT8
T1 sequence (A0A8E3S624 1-479): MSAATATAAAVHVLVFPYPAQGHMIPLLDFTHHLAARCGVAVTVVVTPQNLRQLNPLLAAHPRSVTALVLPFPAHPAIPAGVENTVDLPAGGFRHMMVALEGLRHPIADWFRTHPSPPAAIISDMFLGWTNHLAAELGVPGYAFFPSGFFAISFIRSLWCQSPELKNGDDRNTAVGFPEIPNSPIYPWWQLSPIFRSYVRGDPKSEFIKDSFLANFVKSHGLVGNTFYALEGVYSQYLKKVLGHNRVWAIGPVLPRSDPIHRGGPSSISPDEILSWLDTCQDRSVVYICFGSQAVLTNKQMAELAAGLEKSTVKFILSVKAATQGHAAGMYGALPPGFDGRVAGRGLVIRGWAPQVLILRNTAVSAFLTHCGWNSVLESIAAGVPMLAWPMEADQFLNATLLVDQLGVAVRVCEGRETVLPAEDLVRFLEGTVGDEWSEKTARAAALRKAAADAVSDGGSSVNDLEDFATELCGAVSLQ
As to the kind of experiment: UPLC / Q-TOF-MS conversion assay. The conditions noted are these: UDP-glucose 3200 µM, aglycone 320 µM; Tris-HCl pH 8.0, 40 °C, 6 h.

Experiment [2] concerns the target T2, ApUFGT3 (Andrographis paniculata, UniProt A0A8E3S6A8).
T2 construct: gene UGT4
T2 sequence (A0A8E3S6A8 1-463): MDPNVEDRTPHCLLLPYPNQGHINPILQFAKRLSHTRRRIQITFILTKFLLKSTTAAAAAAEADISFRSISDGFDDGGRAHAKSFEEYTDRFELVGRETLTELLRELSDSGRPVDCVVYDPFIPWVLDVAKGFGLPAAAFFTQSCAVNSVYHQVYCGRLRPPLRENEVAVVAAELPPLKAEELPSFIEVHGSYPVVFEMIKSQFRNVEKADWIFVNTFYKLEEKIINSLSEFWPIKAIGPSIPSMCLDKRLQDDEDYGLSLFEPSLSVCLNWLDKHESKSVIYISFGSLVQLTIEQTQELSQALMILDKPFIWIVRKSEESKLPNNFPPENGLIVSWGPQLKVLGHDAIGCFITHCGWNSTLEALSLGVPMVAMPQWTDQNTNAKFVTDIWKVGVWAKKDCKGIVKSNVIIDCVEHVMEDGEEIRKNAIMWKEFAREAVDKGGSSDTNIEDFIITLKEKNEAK
As to the kind of experiment: UPLC / Q-TOF-MS conversion assay. Conditions: UDP-glucose 3200 µM, aglycone 320 µM; Tris-HCl pH 8.0, 40 °C, 6 h.

In experiment [3] the target is T3, ApUFGT1 (Andrographis paniculata, UniProt A0A8E3MB50).
T3 construct: gene UGT2
T3 sequence (A0A8E3MB50 1-485): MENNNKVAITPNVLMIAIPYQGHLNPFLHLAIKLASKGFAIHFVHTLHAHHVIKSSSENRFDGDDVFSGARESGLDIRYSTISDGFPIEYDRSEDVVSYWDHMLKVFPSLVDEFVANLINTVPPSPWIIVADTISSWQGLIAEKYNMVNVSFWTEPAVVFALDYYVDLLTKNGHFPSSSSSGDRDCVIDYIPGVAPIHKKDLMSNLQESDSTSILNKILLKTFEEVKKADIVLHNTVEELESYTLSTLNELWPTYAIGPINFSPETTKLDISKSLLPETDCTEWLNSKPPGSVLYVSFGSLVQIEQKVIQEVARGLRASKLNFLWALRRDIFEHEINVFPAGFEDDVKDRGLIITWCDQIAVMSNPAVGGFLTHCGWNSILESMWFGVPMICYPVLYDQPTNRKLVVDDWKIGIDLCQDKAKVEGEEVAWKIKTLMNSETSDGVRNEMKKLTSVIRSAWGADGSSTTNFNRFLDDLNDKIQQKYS
As to the kind of experiment: UPLC / Q-TOF-MS conversion assay. Conditions: UDP-glucose 3200 µM, aglycone 320 µM; Tris-HCl pH 8.0, 40 °C, 6 h.

Experiment [4] concerns the target T3, ApUFGT1. As to the kind of experiment: UPLC conversion assay. Conditions: UDP-glucose donor; 50 mM Tris-HCl pH 8.0, 40 °C.
For experiment [5], the target named is T2, ApUFGT3. As to the kind of experiment: UPLC conversion assay. Conditions: UDP-glucose donor; 50 mM Tris-HCl pH 8.0, 40 °C.
Experiment [6] concerns the target T1, ApUFGT2. As to the kind of experiment: UPLC conversion assay. The conditions noted are these: UDP-glucose donor; 50 mM Tris-HCl pH 8.0, 40 °C.

In the case of `O=c1cc(-c2ccc(O)cc2)oc2cc(O)cc(O)c12` [compound 1, apigenin], the “UPLC / Q-TOF-MS conversion assay” value at ApUFGT2 [1] is given as “Product peak 1c was confirmed as apigetrin, namely, apigenin 7-O-glucoside”; at ApUFGT3 [2], “Product peak 1c was confirmed as apigetrin, namely, apigenin 7-O-glucoside”; on ApUFGT1 [3], “Product peak 1c was confirmed as apigetrin, namely, apigenin 7-O-glucoside”.

Turning to `COc1c(O)cc(O)c2c(=O)cc(-c3ccccc3)oc12` [wogonin], the UPLC conversion assay entry on ApUFGT1 [4], at ApUFGT3 [5] and at ApUFGT2 [6] was “glycosylation of wogonin catalysed by ApUFGTs” in each case.
